Source: patent publication US12264173B2 (GILEAD SCIENCES, INC., priority 2020, dated 2025)
Read-outs that look alike come from different tables or passages of the source.

Columns and labels:
Format in all cases: cell-based
HRV16 = HRV16 HeLa EC50 (cytopathic effect in H1-HeLa cells); settings: read-out: HRV16 HeLa EC50
Method in brief: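 H1-HeLa cells seeded one day before, given 3-fold serial compound dilutions in triplicate just prior to infection with pre-titrated virus. Incubated 96 h at 33 °C/5% CO2; protection from cytopathic effect read as viability by CellTiter-Glo luminescence, normalised to infected untreated (0%) and uninfected (100%) controls.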

RSV A2 = assay: RSV NHBE EC50 (RSV A2 antiviral assay in NHBE cells); settings: read-out: RSV NHBE EC50
Method in brief: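 NHBE cells (7,500/well, passage ≤6) given 3-fold serially diluted compound (0.05% DMSO final), then infected with RSV A2 at 1×10^4.5 tissue culture infectious doses/mL. After 4 days at 37 °C, viability measured by CellTiter-Glo luminescence at 25 °C.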

DENV2 replicon = assay: DENV-2 Huh-7 Rep EC50 (replicon luminescence)
Method in brief: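 Huh-7 cells carrying a DENV2 replicon, 5,000 cells/well, were incubated with dosed compounds for 48 h at 37° C. EnduRen live-cell substrate was added 1.5 h before luminescence reading. EC50 came from dose-response against DMSO-only wells.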

RSV strain A2 = assay: microbe, parasite or virus in culture; settings: read-out: RSV HEp-2 EC50
Method in brief: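 Cytopathic-effect protection assay: HEp-2 cells (50,000/mL) infected with pre-titered RSV A2 onto 3-fold serial compound dilutions, incubated 4 days at 37° C. Cell viability read by CellTiter-Glo luminescence; percent inhibition derived against 0% and 100% virus-inhibition controls.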

[1] = 96 h, Table 3, H1-HeLa cells, 96 h
[2] = human respiratory syncytial virus, NHBE, 96 h, Table 3, NHBE cells, RSV A2, 4 days
[3] = Dengue virus, DENV2, Huh-7, 48 h, read-out: DENV-2 REP Huh7 EC50
[4] = human respiratory syncytial virus, HEp-2, 96 h, Table 3, HEp-2 cells, RSV A2, 4 days
[5] = Dengue virus, DENV2, Huh-7, 48 h, read-out: DENV-2 REP Huh7 EC50, Table 3, Huh-7 DENV2 replicon cells, 48 hours
[6] = Table 3, NHBE cells, RSV A2, 4 days
[7] = Table 3, Huh-7 DENV2 replicon cells, 48 hours, read-out: DENV-2 REP Huh7 EC50
[8] = Table 3, HEp-2 cells, RSV A2, 4 days

SMILES	EC50 (HRV16; [1]) [nM]	EC50 (RSV A2; [2]) [nM]	EC50 (DENV2 replicon; [3]) [µM]	EC50 (RSV strain A2; [4]) [nM]	EC50 (HRV16; HeLa, Table 5 comparative activity, 2',3'-OH vs -OC(O)iPr) [nM]	EC50 (RSV A2; human respiratory syncytial virus, NHBE, Table 5 comparative activity, 2',3'-OH vs -OC(O)iPr) [nM]	EC50 (RSV strain A2; human respiratory syncytial virus, HEp-2, Table 5 comparative activity, 2',3'-OH vs -OC(O)iPr) [nM]	EC50 (DENV2 replicon; [5]) [µM]	EC50 (HRV16; Table 3, H1-HeLa cells, 96 h) [nM]	EC50 (RSV A2; [6]) [nM]	EC50 (DENV2 replicon; [7]) [µM]	EC50 (RSV strain A2; [8]) [nM]
COCCOCC(=O)O[C@H]1[C@H](c2ccc3c(N)ncnn23)O[C@](C#N)(CO[P@@](=O)(N[C@@H](C)C(=O)OC(C)C)Oc2ccccc2)[C@H]1OC(=O)COCCOC [Example 161, (2R,3S,4S,5S)-5-(4-aminopyrrolo[2,1-f][1,2,4]triazin-7-yl)-2-cyano-2-((((S)-(((S)-1-isopropoxy-1-oxopropan-2-yl)amino)(phenoxy)phosphoryl)oxy)methyl) tetrahydrofuran-3,4-diyl bis(2-(2-methoxyethoxy)acetate)]	1230	1160	22.5	151								
COC(=O)[C@H](C)N[P@](=O)(OC[C@@]1(C#N)O[C@@H](c2ccc3c(N)ncnn23)[C@H](OC(=O)[C@@H](C)OC)[C@@H]1OC(=O)[C@@H](C)OC)Oc1ccccc1 [Example 166, (2R,3S,4S,5S)-5-(4-aminopyrrolo[2,1-f][1,2,4]triazin-7-yl)-2-cyano-2-((((S)-(((S)-1-methoxy-1-oxopropan-2-Yl)amino)(phenoxy)phosphoryl)oxy)methyl) tetrahydrofuran-3,4-diyl (2R,2′R)-bis(2-methoxypropanoate)]	1660	112	21.7	157								
CCC(=O)Nc1ncnn2c([C@@H]3O[C@](C#N)(COP(=O)(N[C@@H](C)C(=O)OC4CCOCC4)Oc4ccccc4)[C@@H](OC(=O)CC)[C@H]3OC(=O)CC)ccc12 (stereo partly drawn) [Example 170, (2R,3S,4S,5S)-2-Cyano-2-((((((S)-1-oxo-1-((tetrahydro-2H-pyran-4-yl)oxy)propan-2-yl)amino)(phenoxy)phosphoryl)oxy)methyl)-5-(4-propionamidopyrrolo[2,1-f][1,2,4]triazin-7-yl)tetrahydrofuran-3,4-diyl dipropionate]	863	80	15.9	267								
CCC(=O)O[C@H]1[C@H](c2ccc3c(N)ncnn23)O[C@](C#N)(CO[P@@](=O)(N[C@@H](C)C(=O)OCC(CC)CC)Oc2ccccc2)[C@H]1OC(=O)CC [Example 180, (2R,3S,4S,5S)-5-(4-aminopyrrolo[2,1-f][1,2,4]triazin-7-yl)-2-cyano-2-((((S)-(((S)-1-(2-ethylbutoxy)-1-oxopropan-2-yl)amino)(phenoxy)phosphoryl)oxy)methyl) tetrahydrofuran-3,4-diyl dipropionate]	178	31	8.31	62								
CC(C)C(=O)O[C@H]1[C@H](c2ccc3c(N)ncnn23)O[C@](C#N)(COP(=O)(N[C@@H](C)C(=O)OC2COC2)Oc2ccccc2)[C@H]1OC(=O)C(C)C (stereo partly drawn) [Example 184, (2R,3S,4S,5S)-5-(4-aminopyrrolo[2,1-f][1,2,4]triazin-7-yl)-2-cyano-2-((((((S)-1-(oxetan-3-yloxy)-1-oxopropan-2-yl)amino)(phenoxy)phosphoryl)oxy)methyl) tetrahydrofuran-3,4-diyl bis(2-methylpropanoate)]	57	13	5.96	79	57	13	79					
CCCCOC(=O)[C@H](C)NP(=O)(N[C@@H](C)C(=O)OCCCC)OC[C@@]1(C#N)O[C@@H](c2ccc3c(N)ncnn23)[C@H](OC(=O)CC)[C@@H]1OC(=O)CC [Example 193]	1620	125		610				30				
CCCCC(=O)O[C@H]1[C@H](c2ccc3c(N)ncnn23)O[C@](C#N)(COP(=O)(N[C@@H](C)C(=O)OCC)N[C@@H](C)C(=O)OCC)[C@H]1OC(=O)CCCC [Example 194, (2R,3S,4S,5S)-5-(4-Aminopyrrolo[2,1-f][1,2,4]triazin-7-yl)-2-(((bis(((S)-1-ethoxy-1-oxopropan-2-yl)amino)phosphoryl)oxy)methyl)-2-cyanotetrahydrofuran-3,4-diyl dipentanoate]	2090	529		391				30.9				
CCC(=O)O[C@H]1[C@H](c2ccc3c(N)ncnn23)O[C@](C#N)(COP(=O)(N[C@@H](C)C(=O)OC2CCC2)Oc2ccccc2)[C@H]1OC(=O)CC (stereo partly drawn) [Example 195, (2R,3S,4S,5S)-5-(4-aminopyrrolo[2,1-f][1,2,4]triazin-7-yl)-2-cyano-2-((((((S)-1-cyclobutoxy-1-oxopropan-2-yl)amino)(phenoxy)phosphoryl)oxy)methyl) tetrahydrofuran-3,4-diyl dipropionate]									126	59	6.45	23
CCC(=O)O[C@H]1[C@H](c2ccc3c(N)ncnn23)O[C@](C#N)(CO[P@](=O)(N[C@@H](C)C(=O)OC2CCC2)Oc2ccccc2)[C@H]1OC(=O)CC [Example 196, (2R,3S,4S,5S)-5-(4-aminopyrrolo[2,1-f][1,2,4]triazin-7-yl)-2-cyano-2-((((R)-(((S)-1-cyclobutoxy-1-oxopropan-2-yl)amino)(phenoxy)phosphoryl)oxy)methyl) tetrahydrofuran-3,4-diyl dipropionate]									96	27	1.96	42
CC(C)C(=O)O[C@H]1[C@H](c2ccc3c(N)ncnn23)O[C@](C#N)(COP(=O)(N[C@@H](C)C(=O)OC2CCC2)Oc2ccccc2)[C@H]1OC(=O)C(C)C (stereo partly drawn) [Example 197, (2R,3S,4S,5S)-5-(4-aminopyrrolo[2,1-f][1,2,4]triazin-7-yl)-2-cyano-2-((((((S)-1-cyclobutoxy-1-oxopropan-2-yl)amino)(phenoxy)phosphoryl)oxy)methyl) tetrahydrofuran-3,4-diyl bis(2-methylpropanoate)]									94	33	4.46	28
CC(=O)O[C@H]1[C@H](c2ccc3c(N)ncnn23)O[C@](C#N)(COP(=O)(N[C@@H](C)C(=O)OC2CCC2)Oc2ccccc2)[C@H]1OC(C)=O (stereo partly drawn) [Example 198, (2R,3S,4S,5S)-5-(4-aminopyrrolo[2,1-f][1,2,4]triazin-7-yl)-2-cyano-2-((((((S)-1-cyclobutoxy-1-oxopropan-2-yl)amino)(phenoxy)phosphoryl)oxy)methyl) tetrahydrofuran-3,4-diyl diacetate]									319	37	6.62	48
CCC(=O)O[C@H]1[C@H](c2ccc3c(N)ncnn23)O[C@](C#N)(COP(=O)(N[C@@H](C)C(=O)OC)N[C@@H](C)C(=O)OC)[C@H]1OC(=O)CC [Example 199]	19500	235		4110				> 50				
CC(C)C(=O)O[C@H]1[C@H](c2ccc3c(N)ncnn23)O[C@](C#N)(COP(=O)(N[C@@H](C)C(=O)OCC2COC2)Oc2ccccc2)[C@H]1OC(=O)C(C)C (stereo partly drawn) [Example 200, (2R,3S,4S,5S)-5-(4-aminopyrrolo[2,1-f][1,2,4]triazin-7-yl)-2-cyano-2-((((((S)-1-(oxetan-3-ylmethoxy)-1-oxopropan-2-yl)amino)(phenoxy)phosphoryl)oxy)methyl) tetrahydrofuran-3,4-diyl bis(2-methylpropanoate)]	120	12	2.18	58								
CCC(=O)O[C@H]1[C@H](c2ccc3c(N)ncnn23)O[C@](C#N)(COP(=O)(N[C@@H](C)C(=O)OCC2COC2)Oc2ccccc2)[C@H]1OC(=O)CC (stereo partly drawn) [Example 203, (2R,3S,4S,5S)-5-(4-aminopyrrolo[2,1-f][1,2,4]triazin-7-yl)-2-cyano-2-((((((S)-1-(oxetan-3-ylmethoxy)-1-oxopropan-2-yl)amino)(phenoxy)phosphoryl)oxy)methyl) tetrahydrofuran-3,4-diyl dipropionate]	359	38	9.5	95								
C[C@H](NP(=O)(OC[C@@]1(C#N)O[C@@H](c2ccc3c(N)ncnn23)[C@H](OC(=O)C(C)(C)C)[C@@H]1OC(=O)C(C)(C)C)Oc1ccccc1)C(=O)OC1COC1 (stereo partly drawn) [Example 206, (2R,3S,4S,5S)-5-(4-aminopyrrolo[2,1-f][1,2,4]triazin-7-yl)-2-cyano-2-((((((S)-1-(oxetan-3-yloxy)-1-oxopropan-2-yl)amino)(phenoxy)phosphoryl)oxy)methyl) tetrahydrofuran-3,4-diyl bis(2,2-dimethylpropanoate)]	308	36	7.59	338								
